# Data taken from patent publication US9072703B2 (Ipsen Pharma S.A.S., priority 2008, dated 2015).
# Non-standard residues stand in square brackets, D forms with d. No end group written: not given here. *: point of attachment. Myristoyl = CCCCCCCCCCCCCC(=O)*; Ac6c = NC1(C(=O)O)CCCCC1; Orn = NCCC[C@H](N)C(=O)O
# How the values were obtained:
# [1] = target: T1, human recombinant GIP receptor (Homo sapiens, UniProt P48546); assay: In vitro hGIP receptor binding assay
# T1 construct: expressed in transfected cells; host or cells: CHO-K1 clonal cells (membrane preparation)
# T1 sequence (P48546 22-466): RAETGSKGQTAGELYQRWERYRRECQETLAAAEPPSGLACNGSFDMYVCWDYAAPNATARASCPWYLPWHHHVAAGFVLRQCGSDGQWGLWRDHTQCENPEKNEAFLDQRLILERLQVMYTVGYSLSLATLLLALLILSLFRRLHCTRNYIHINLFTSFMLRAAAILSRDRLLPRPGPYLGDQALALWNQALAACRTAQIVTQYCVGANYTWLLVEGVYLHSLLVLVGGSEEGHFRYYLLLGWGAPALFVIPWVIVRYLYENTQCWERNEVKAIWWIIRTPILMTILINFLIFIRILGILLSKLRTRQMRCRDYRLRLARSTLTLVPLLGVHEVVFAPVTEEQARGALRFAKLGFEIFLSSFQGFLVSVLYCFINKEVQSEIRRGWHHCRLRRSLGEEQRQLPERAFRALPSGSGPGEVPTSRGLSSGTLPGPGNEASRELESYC
# Method: The final assay volume was 0.5 ml. The incubations were terminated by rapid filtration through GF/C filters (pre-soaked in 0.5% polyethylenimine) using a Brandel filtration manifold. Each tube and filter were then washed three times with 5-ml aliquots of ice-cold buffer.
# [2] = Human plasma half-life assay; assay type: in vitro ADME; settings: 37° C., LC-MS, read-out: Human Plasma T½ (converted)
# [3] = Rat plasma half-life assay; assay type: in vitro ADME; settings: 37° C., LC-MS, read-out: Rat Plasma T½ (converted)
substance,measurement,setting,value
"YAEGTF[Ac6c]SDYSIAMDKIHQQDFVNWLLAQK[Orn](Myristoyl)KKNDWKHNITQ-OH [Example 19, [A6c^7, Orn^31(N—C(O)—(CH2)12—CH3)]hGIP(1-42)-OH]",Ki,[1],0.018 µM
same,half-life at 0.1 mg/ml,[2],6.3 h
same,half-life at 0.1 mg/ml,[3],54.6 h
